Laboratory results from patent US20220388953A1, “COMPOUNDS WITH ANTIMICROBIAL ACTIVITY” (The Hong Kong Polytechnic University, priority 2018, published 2022).
Values after ≈ are worked out from the molar mass of the structure shown. Where two headings read alike, the source gives them in different places.

Tests used:
[1] = test system: Streptococcus pneumoniae (Klein) Chester (ATCC 49619); test: Antimicrobial assay, broth microdilution (CLSI), MIC; format: cell-based
Experimental: C3 derivatives were synthesized and antimicrobial activity measured against Streptococcus pneumoniae (MIC, minimum inhibitory concentration).
Bacterial Strains was used in this study is Streptococcus pneumoniae (Klein) Chester (ATCC® 49619™)
The antimicrobial activity of the compounds was determined by broth microdilution according to the Clinical & Laboratory Standards Institute (CLSI) guidelines. The test medium was cation-adjusted Mueller-Hinton broth (MH). Serial two-fold dilutions were performed for the tested chemicals starting from 256 μg/mL to 0.5 μg/mL, and the bacterial cell inoculum was adjusted to approximately 5×10^5 CFU/mL. Results were taken after 20 h of incubation at 37° C. The MIC was defined as the lowest concentration of antibiotic with no visible growth. Experiments were performed in duplicates.

[2] = test system: β′ CH −σ^A interaction; test: ELISA-based binding assay using σ^A and a GST-tagged β′ subunit fragment (β′-CH); design: species or system Bacillus subtilis; details: inhibitor compounds used at 500 μM (FIG. 3)
Experimental: FIG. 3 depicts a graph showing assay results of hit compound activity determined by ELISA of the β′ CH −σ^A interaction. Inhibitor compounds C1-C7 were used at 500 μM.

[3] = ATCC49619, Table 1, Streptococcus pneumoniae ATCC 49619, 20 h at 37° C., read-out: MIC
[4] = Streptococcus pneumoniae, ATCC49619, 20 h

Row | MIC [1, 3] [mg/L] | melting point [°C] | SMILES | inhibitory activity against the binding of σ^A and β′ fragments [2] | MIC [1, 4] [mg/L]
1 | 256 (≈ 612 µM) | 110 to 112 | CC(C)(C)c1cccc(Nc2ccc(C(=O)c3ccccc3C(=O)O)cc2[N+](=O)[O-])c1 [C3-21, 2-(4-((3-(tert-Butyl)phenyl)amino)-3-nitrobenzoyl)benzoic Acid] | – | –
2 | > 256 | 225 to 226 | COc1ccc(Nc2ccc(C(=O)c3ccccc3C(=O)O)cc2[N+](=O)[O-])cc1 [C3-24, 2-(4-((4-Methoxyphenyl)amino)-3-nitrobenzoyl)benzoic Acid] | – | –
3 | > 256 | 151 to 153 | O=C(O)c1ccccc1C(=O)c1ccc(Nc2cccc3cccnc23)c([N+](=O)[O-])c1 [C3-26, 2-(3-Nitro-4-(quinolin-8-ylamino)benzoyl)benzoic Acid] | – | –
4 | > 256 | 139 to 141 | NC(=O)c1cccc(Nc2ccc(C(=O)c3ccccc3C(=O)O)cc2[N+](=O)[O-])c1 [C3-22, 2-(4-((3-Carbamoylphenyl)amino)-3-nitrobenzoyl)benzoic Acid] | – | –
5 | > 256 | 132 to 134 | O=C(O)c1ccccc1C(=O)c1ccc(Nc2cccc(CO)c2)c([N+](=O)[O-])c1 [C3-19, 2-(4-((3-(Hydroxymethyl)phenyl)amino)-3-nitrobenzoyl)benzoic Acid] | – | –
6 | 256 (≈ 680 µM) | 88 to 90 | O=C(O)c1ccccc1C(=O)c1ccc(NCc2ccccc2)c([N+](=O)[O-])c1 [C3-29, 2-(4-(Benzylamino)-3-nitrobenzoyl)benzoic Acid] | – | –

Second part, the molecule before the results:

Row | SMILES | MIC [1, 3] [mg/L] | melting point [°C] | inhibitory activity against the binding of σ^A and β′ fragments [2] | MIC [1, 4] [mg/L]
7 | O=C(O)c1ccccc1C(=O)c1ccc(Sc2ccccn2)c([N+](=O)[O-])c1 [C3-4, 2-(3-Nitro-4-(pyridin-2-ylthio)benzoyl)benzoic Acid] | > 256 | 205 to 206 | – | –
8 | Nc1ccccc1Sc1ccc(C(=O)c2ccccc2C(=O)O)cc1[N+](=O)[O-] [C3-1, 2-(4-((2-Aminophenyl)thio)-3-nitrobenzoyl)benzoic Acid] | – | – | possessed inhibitory activity | –
9 | O=C(O)c1ccccc1C(=O)c1ccc(Sc2ccc(Cl)cc2Cl)c([N+](=O)[O-])c1 [C3-11, 2-(4-((2,4-Dichlorophenyl)thio)-3-nitrobenzoyl)benzoic Acid] | – | 260 to 262 | – | 32 (≈ 71.4 µM)
10 | O=C(O)c1ccccc1C(=O)c1ccc(Nc2nccs2)c([N+](=O)[O-])c1 [C3-27, 2-(3-Nitro-4-(thiazol-2-ylamino)benzoyl)benzoic Acid] | > 256 | 99 to 100 | – | –
11 | O=C(O)c1ccccc1C(=O)c1ccc(Nc2ccccc2)c([N+](=O)[O-])c1 [C3-25, 2-(3-Nitro-4-(phenylamino)benzoyl)benzoic Acid] | – | 184 to 186 | – | 256 (≈ 707 µM)
12 | O=C(O)c1ccccc1C(=O)c1ccc(Nc2ccc(Cl)c(Cl)c2)c([N+](=O)[O-])c1 [C3-23, 2-(4-((3,4-Dichlorophenyl)amino)-3-nitrobenzoyl)benzoic Acid] | – | 115 to 117 | – | 64 (≈ 148 µM)
13 | Cc1cccc([N+](=O)[O-])c1Sc1ccc(C(=O)c2ccccc2C(=O)O)cc1[N+](=O)[O-] [C3-15, 2-(4-((2-Methyl-6-nitrophenyl)thio)-3-nitrobenzoyl)benzoic Acid] | – | 269 to 271 | – | 128 (≈ 292 µM)
14 | CC(=O)Nc1cccc(Sc2ccc(C(=O)c3ccccc3C(=O)O)cc2[N+](=O)[O-])c1 [C3-8, 2-(4-((3-Acetamidophenyl)thio)-3-nitrobenzoyl)benzoic Acid] | 256 (≈ 587 µM) | 144 to 146 | – | –
15 | CCN(CC)C(=O)c1ccc(Sc2ccc(C(=O)c3ccccc3C(=O)O)cc2[N+](=O)[O-])c([N+](=O)[O-])c1 [C3-14, 2-(4-((4-(Diethylcarbamoyl)-2-nitrophenyl)thio)-3-nitrobenzoyl)benzoic Acid] | – | 129 to 130 | – | 256 (≈ 489 µM)
16 | COc1ccccc1Sc1ccc(C(=O)c2ccccc2C(=O)O)cc1[N+](=O)[O-] [C3-2, 2-(4-((2-Methoxyphenyl)thio)-3-nitrobenzoyl)benzoic Acid] | 128 (≈ 313 µM) | 209 to 211 | – | –
17 | Nc1ccccc1Nc1ccc(C(=O)c2ccccc2C(=O)O)cc1[N+](=O)[O-] [C3-17, 2-(4-((2-Aminophenyl)amino)-3-nitrobenzoyl)benzoic Acid] | – | 201 to 202 | – | > 256
18 | Cc1occc1Sc1ccc(C(=O)c2ccccc2C(=O)O)cc1[N+](=O)[O-] [C3-16, 2-(4-((2-Methylfuran-3-yl)thio)-3-nitrobenzoyl)benzoic Acid] | 256 (≈ 668 µM) | 198 to 199 | – | –
19 | O=C(Nc1cccc(Sc2ccc(C(=O)c3ccccc3C(=O)O)cc2[N+](=O)[O-])c1)c1ccccc1 [C3-9, 2-(4-((3-Benzamidophenyl)thio)-3-nitrobenzoyl)benzoic Acid] | 32 (≈ 64.2 µM) | 144 to 145 | – | –
